Measured values reported in patent US6605115B1, “Method and composition for inhibiting cardiovascular cell proliferation” (Board of Trustees of the Leland Stanford Junior University, priority 1999, dated 2003).

Key:
cytokine-stimulated VSMC = assay: Effect of arginine oligomers on NO production in cytokine-stimulated VSMC (NO2, Griess); format: cell-based, rat
Experimental: Rat VSMCs were prepared from the media layer of thoracic aorta of Sprague-Dawley rats by the explant method. The cells were cultured in Dulbecco's modified Eagle's medium (DMEM, Gibco BRL, Gaithersburg, Md.) containing 10% fetal calf serum, 100 U/ml penicillin and 100 μg/ml streptomycin at 37° C. under a humidified atmosphere containing 5% CO2. After subconfluent growth, cells were cultured with MEM Select Amine Kit (Gibco BRL, Gaithersburg, Md.) to be treated by specific concentrations of extracellular free L-arginine. Experiments were performed using cultured cells at passage levels of 5-10.
Extracellular NO production was measured as its stable oxidative metabolite, nitrite (NO2). At the end of each incubation, samples of the medium (80 μl) were collected, and NO2 measurement was performed using the Griess reaction facilitated by a commercial calorimetric assay (Cayman Chemical, Ann Arbor, Mich.). Values of NO2 production were corrected with relative cell count assessed by a cell proliferation kit II (XTT) (Boeheringer Mannheim, Germany).
Subconfluent cells were pre-incubated with medium containing 100 μM arginine for 24 hours. The cells were then transiently pretreated with each arginine polymer for 30 minutes. After translocation, the cells were incubated with a mixture of IFN-γ (100 U/ml) and LPS (100 μg/ml) in medium containing 100 μM L-arginine for another 24 hours. In some experiments, L-NMMA (1 mM), a nitric oxide synthase inhibitor, was added to the medium.

[1] = tested on: coronary vessels of transplanted PVG rat donor hearts; assay: Heart transplant study (graft coronary artery disease, GCAD); format: in vivo; details: for % affected vessels / % luminal narrowing / I/M ratio: intracoronary 50 uM, 30 minutes
Experimental: In this study, PVG rat donor hearts (n=48) were transplanted heterotopically into the abdomen of ACI recipients. Donor hearts received either intracoronary PBS or intracoronary 50 uM (L)-arginine polymer (L-R5 or L-R9) for 30 minutes. (D-arginine polymers were not included in this study.) Each of these groups was further divided into 60 and 90 day study animals (n=6 each). Percent luminal narrowing, intima to media ratio (I/M), and percent affected vessels were determined as described in Example 11, below. Transfection efficiency was determined by infusing biotinylated R5 and R9, as in the preceding studies, and calculating the percentage of biotin positive nuclei divided by total number of nuclei.
PVG rat donor hearts (n=48) were transplanted heterotopically into the abdomen of ACI recipients. Donor hearts received either intracoronary PBS or intracoronary 50 uM (L)-arginine polymer (L-R5 or L-R9) for 30 minutes. Each group was further divided into 60 and 90 day study animals (n=6 each). Tissue cross sections (5μ) were stained with EVG (Elastica-van Gieson) preparation, and vessels were scored using computerized morphometry for analysis of % luminal narrowing, intima to media ratio (I/M), and % affected vessels. Transfection efficiency was determined by infusing biotinylated R5 and R9, as in preceding examples, and calculating the percentage of biotin positive nuclei divided by total number of nuclei. Results are described in Section IV C, above.

Molecule: CNC(=N)NCCC[C@H](N)C(=O)O [L-NMMA, N^G-monomethyl L-arginine, reference compound]
- enhancement of NO production in R7 treated cells after NO synthase inhibitor (cytokine-stimulated VSMC; L-NMMA (1 mM) added to R7 treated cells): abolished

Molecule: hepta-L-lysine [K7, reference compound]
- NO production (cytokine-stimulated VSMC; 100 μM, 30 minutes): did not increase the NO production

Molecule: nona-L-arginine [R9]
- NO production (cytokine-stimulated VSMC; pretreatment 30 minutes, then IFN-γ and LPS, 100 μM extracellular L-arginine): dose-dependent increases in NO production at doses as low as 10 μM
- degree of enhancement of NO production (cytokine-stimulated VSMC; pretreatment 30 minutes, vs. vehicle treated cytokine-stimulated cells): 44±5.2%
- GCAD compared to PBS controls ([1]; 60 and 90 days): significant reduction in GCAD
- % affected vessels ([1]; 60 days): 6.5 ± 6.9%
- % luminal narrowing ([1]; 60 days): 3.2 ± 3.8%
- I/M ratio ([1]; 60 days): .03 ± .04
- % affected vessels ([1]; 90 days): 4.9 ± 7.1%
- % luminal narrowing ([1]; 90 days): 1.6 ± 3.3%
- I/M ratio ([1]; 90 days): .01 ± .02
- transfection of coronary vessels ([1]; biotinylated oligomer infused): marked transfection of the intima and media of coronary vessels
